The target in this experiment is T1, Type-1 angiotensin II receptor B (Rattus norvegicus, UniProt P29089).
T1 sequence (P29089 whole entry): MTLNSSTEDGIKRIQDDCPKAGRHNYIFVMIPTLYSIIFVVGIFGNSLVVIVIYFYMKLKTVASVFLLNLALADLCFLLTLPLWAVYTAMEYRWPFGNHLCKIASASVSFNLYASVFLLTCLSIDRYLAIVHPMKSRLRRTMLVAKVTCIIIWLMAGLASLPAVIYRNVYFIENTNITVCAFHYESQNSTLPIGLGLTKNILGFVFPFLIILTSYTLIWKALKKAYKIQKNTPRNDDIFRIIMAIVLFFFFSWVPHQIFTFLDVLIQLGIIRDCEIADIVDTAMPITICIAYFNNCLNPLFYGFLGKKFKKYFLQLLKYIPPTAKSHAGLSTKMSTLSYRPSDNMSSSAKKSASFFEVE
The experiment is described as follows: Inhibition of binding of [125I]All at the angiotensin II type 1 receptor (AT1 receptor) in rat liver membranes.

What is called Ki is the equilibrium dissociation constant of an inhibitor or competing ligand from its target. A lower Ki goes with higher affinity. Compound `CCc1nn(Cc2ccc(-c3ccccc3-c3nnn[nH]3)cc2)c(=NC(=O)c2ccccc2)s1` [N-[5-Ethyl-3-[2'-(1H-tetrazol-5-yl)-biphenyl-4-ylmethyl]-3H-[1,3,4]thiadiazol-(2Z)-ylidene]-benzamide] gave a Ki of 36 nM. Then `CCc1nn(Cc2ccc(-c3ccccc3-c3nnn[nH]3)cc2)c(=NC(=O)c2ccccc2Cl)s1` [2-Chloro-N-[5-ethyl-3-[2'-(1H-tetrazol-5-yl)-biphenyl-4-ylmethyl]-3H-[1,3,4]thiadiazol-(2Z)-ylidene]-benzamide], with 3.4 nM; and `CCc1nn(Cc2ccc(-c3ccccc3-c3nnn[nH]3)cc2)c(=NC(=O)c2ccccc2C(=O)O)s1` [N-[5-Ethyl-3-[2'-(1H-tetrazol-5-yl)-biphenyl-4-ylmethyl]-3H-[1,3,4]thiadiazol-(2Z)-ylidene]-phthalamic acid], with 0.619 nM.

These data come from BindingDB's records for doi:10.7270/Q29S1T6B (n/a, 1997).
